Reference: patent US11365215B2, “Method for preventing, improving, or treating inflammatory bowel disease” (Research & Business Foundation Sungkyunkwan University, priority 2015, dated 2022)
Peptide text beside a SMILES is read from it.

Legend:
Type in all cases: cell-based
NF-κB = assay: 5×NF-κB-Luc reporter luciferase assay in LPS-treated RAW 264.7 cells
Description: Specifically, 5×NF-κB-Luc reporter plasmid was transfected into RAW 264.7 cells using Effectene (Qiagen, USA). The transfected cells were pretreated with 100 nM of compound 1.1 (SEQ ID NO: 2) for 30 minutes, and further treated with LPS (100 ng/ml) for two hours, and luciferase activity in the cells was measured (FIG. 4 depicts a graph showing relative inhibition activities of compound 1.1 (SEQ ID NO: 2) and compound 1.2 to NF-κB activation). When the cells were treated with compound 1.1 (SEQ ID NO: 2) and compound 1.2 according to the present invention, activation of NF-κB, which was induced by LPS, was inhibited (FIG. 4).
In addition, 5×NF-κB-Luc reporter plasmid was transfected into RAW 264.7 macrophage cells and treated with compounds of the present invention, as described above. After 24 hours of the transfection, the cells were pretreated with DMSO (control), compound 1.1 (SEQ ID NO: 2), reference compound 1 (SEQ ID NO: 16) (compound where palmitic acid is removed from compound 1.1 (SEQ ID NO: 2)), and smaducin-6 were treated at various concentrations of 100 pM, 1 nM, and 100 nM for 30 minutes, and then the cells were treated with 100 ng/ml of LPS for two hours.
Specifically, 5×NF-κB-Luc reporter plasmid, SBE-Luc reporter plasmid, and BRE-Luc reporter plasmid were individually transfected into Raw 264.7 macrophage cells. After 24 hours, the cells transfected with the NF-κB-Luc reporter plasmid were treated with 100 ng/mL of LPS, the cells transfected with the SBE-Luc reporter plasmid were treated with 5 ng/mL of TFG-β1, and the cells transfected with the BRE-Luc reporter plasmid were treated with 100 ng/mL of BMP6 for two hours.
As described in Example 2.3, 5×NF-κB-Luc reporter plasmid was transfected into RAW 246.7 macrophage cells. After 24 hours, the cells transfected with NF-κB-Luc reporter plasmid were pretreated with compound 1.1 (SEQ ID NO: 2) (100 nM), interleukin-1-receptor-associated-kinase-1/4 inhibitor (IRAK1/4) inhibitor (25 μM, CAS 509093-47-4), and smaducin-6 (100 nM) for 30 minutes, and then further treated with LPS (100 ng/ml) for 2 hours. Subsequently, luciferase activities in the cells were measured.

[1] = target: T1, inflammatory signaling pathway complex mediated by MyD88 and RIP1 (Mus musculus, UniProt P22366+Q60855); assay: Immunoprecipitation/immunoblot of inflammatory signaling pathway complex in LPS-treated BMDM cells; settings: 100 pM, 1 nM, 100 nM, then 100 ng/mL LPS
T1 construct: endogenous in cells; host or cells: bone-marrow-derived macrophage (BMDM) cells
T1 sequence (P22366 whole entry): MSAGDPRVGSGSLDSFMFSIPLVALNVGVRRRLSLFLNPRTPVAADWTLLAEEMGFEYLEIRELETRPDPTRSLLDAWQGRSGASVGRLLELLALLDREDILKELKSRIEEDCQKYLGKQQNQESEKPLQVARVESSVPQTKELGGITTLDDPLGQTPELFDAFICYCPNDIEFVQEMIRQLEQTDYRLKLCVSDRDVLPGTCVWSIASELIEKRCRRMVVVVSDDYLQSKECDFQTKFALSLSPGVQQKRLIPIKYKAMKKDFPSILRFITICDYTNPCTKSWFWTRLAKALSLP
T1 sequence (Q60855 whole entry): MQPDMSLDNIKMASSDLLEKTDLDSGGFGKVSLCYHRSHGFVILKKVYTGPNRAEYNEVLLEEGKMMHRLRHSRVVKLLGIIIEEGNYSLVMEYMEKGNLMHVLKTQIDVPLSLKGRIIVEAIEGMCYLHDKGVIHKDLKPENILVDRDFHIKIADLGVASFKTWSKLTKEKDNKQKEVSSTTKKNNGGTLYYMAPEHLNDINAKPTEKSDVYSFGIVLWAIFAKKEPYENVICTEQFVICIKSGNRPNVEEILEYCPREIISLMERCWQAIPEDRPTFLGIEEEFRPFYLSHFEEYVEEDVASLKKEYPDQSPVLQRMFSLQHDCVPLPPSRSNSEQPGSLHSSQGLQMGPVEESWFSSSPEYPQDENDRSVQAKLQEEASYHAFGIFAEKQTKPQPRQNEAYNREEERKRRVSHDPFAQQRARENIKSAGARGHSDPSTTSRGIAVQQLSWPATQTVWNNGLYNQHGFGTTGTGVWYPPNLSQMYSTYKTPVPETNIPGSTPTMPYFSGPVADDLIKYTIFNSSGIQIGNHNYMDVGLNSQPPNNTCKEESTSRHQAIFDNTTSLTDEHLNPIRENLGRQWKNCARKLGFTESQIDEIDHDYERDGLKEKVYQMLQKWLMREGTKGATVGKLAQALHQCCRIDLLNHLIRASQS
Description: Bone-marrow-derived macrophage (BMDM) cells were individually pretreated with compound 1.1 (SEQ ID NO: 2), reference compound 1 (SEQ ID NO: 16), and smaducin-6 at various concentrations of 100 pM, 1 nM, and 100 nM, and then further treated with 100 ng/mL of LPS.

[2] = tested on: MAPK signaling pathway proteins (ERK1/2, JNK, p38); assay: Western blot of MAPK signaling pathway protein phosphorylation in LPS-treated RAW 246.7 cells; settings: for phosphorylation of the MAPK signaling pathway proteins (ERK1/2, JNK, p38): 100 nM for 30 minutes, LPS 0, 0.5, 1 and 2 hours
Description: RAW 246.7 macrophage cells were pretreated with compound 1.1 (SEQ ID NO: 2), compound 1.2 and reference compound 1 (SEQ ID NO: 16) at a concentration of 100 nM for 30 minutes and then further treated with LPS for 0 hour, 0.5 hour, 1 hour and 2 hours. […] Changes of the concentration upon phosphorylation of each protein were measured by immunoblotting using anti-phosphorylation antibodies.
Specifically, RAW 246.7 macrophage cells were pretreated with DMSO, compound 1.1 (SEQ ID NO: 2) (100 nM), IRAK1/4 inhibitor (25 μM), and smaducin-6 (100 nM) for 30 minutes, and then further treated with LPS (100 ng/ml) for two hours.

AP-1 = assay: AP-1-Luc reporter luciferase assay in LPS-treated RAW 246.7 cells; settings: 25 μM for 30 minutes, LPS 100 ng/ml 2 hours
Description: RAW 246.7 macrophage cells were transfected with AP-1-Luc reporter plasmid as described in Example 2.3. After 24 hours, the transfected cells with AP-1-Luc reporter plasmid were pretreated with compound 1.1 (SEQ ID NO: 2) (100 nM), IRAK1/4 inhibitor (25 μM), and smaducin-6 (100 nM) for 30 minutes, and then further treated with LPS (100 ng/ml) for 2 hours.

[3] = tested on: inflammatory signaling pathway protein complex mediated by MyD88 or RIP1; assay: Immunoprecipitation of inflammatory signaling pathway protein complex in LPS-treated RAW264.7 cells; settings: pretreated, then LPS
Excerpt: Specifically, using antibodies corresponding to proteins which relate to the formation of Toll-like receptors (TLRs) signaling pathway protein complex (for example, IRAK1, TRAF6, MyD88, RIP1 and Pellino-1), disruption of the formation of inflammatory signaling pathway protein complexes was affirmed by immunoprecipitation. As reference control, a relative amount of expression of β-actin from the total cell lysate was compared and presented using Western blot.
RAW264.7 macrophage cells were individually retreated with compound 1.1 (SEQ ID NO: 2) and compound 1.2, and smaducin-6, and further treated with LPS. These RAW264.7 macrophage cells were collected, lysed in a lysis butter (PBS containing 0.5% Triton X-100, 20 mM HEPES (pH 7.4), 150 mM NaCl, 12.5 mM β-glycerol phosphate, 1.5 mM MgCl2, 10 mM NaF, 2 mM DTT, 1 mM Na3O4V, 2 mM EGTA, and 1 mM Protease Inhibitor (PMSF)), and centrifuged at 13000 rpm for 10 minutes. For immunoprecipitation assays, the supernatant was incubated at 4° C. for 12 hours, with protein-A agarose beads and the antibodies corresponding to the above proteins, and the beads were subsequently washed three times with the lysis buffer. The immunoprecipitated substances were dissociated from the beads with addition of 2× sample buffer, and were boiled. The prepared samples were loaded on SDS-polyacrylamide gel (FIG. 7).

interleukin-6 = assay: Suppression of LPS-induced IL-6 expression in RAW 264.7 macrophage cells (RT-PCR, Real-Time PCR); settings: pretreated 100 nM for 30 min, LPS two hours, compared to untreated sample
Description: First, RAW 264.7 macrophage cells were purchased from American Type Culture Collection (ATCC; Manassas, Va.), and were culture at a temperature of 37° C., under 5% CO2 atmosphere, using 10% Fetal Bovine Serum (FBS) and Dulbecco's Modified Eagle's Medium (DMEM) containing 1% penicillin/streptomycin.
The cultured RAW 264.7 macrophage cells were divided into a 6-well cell culture plate. After 24 hours, the cells were pretreated with compound 1.1 (SEQ ID NO: 2), compound 1.2, and smaducin-6, respectively, in a concentration of 100 nM for 30 min, and further treated with lipopolysaccharides (LPS) for two hours. These cells were collected using TRIzol® and the RNA was extracted. From 2 μg of the extracted RNA, cDNAs (complementary deoxyribonucleic acids) were synthesized and reverse transcription polymerase chain reactions (RT-PCR) and real-time polymerase chain reactions (Real-Time PCR) were performed. Samples from the RT-PCR were confirmed by electrophoresis on agarose gels and quantified using densitometer. A glyceraldehyde 3-phosphate dehydrogenase (GAPDH) gene was used as a loading control for the interleukin-6 gene.
RAW 264.7 macrophage cells were treated with varying concentrations of compound 1.1 (SEQ ID NO: 2) from 50 pM to 500 nM for 30 minutes, and treated with 100 ng/mL of LPS for two hours.

Compound: reference compound 1: compound where palmitic acid is removed from compound 1.1 (SEQ ID NO: 2) (PPGY) [reference compound]
- inhibition of the activity of NF-κB induced by LPS, dose dependence (NF-κB; 100 pM, 1 nM, 100 nM for 30 minutes, LPS 100 ng/ml two hours): not inhibited in dose dependent manner
- formation of inflammatory signaling pathway complex mediated by MyD88 and RIP1 [1]: formed the inflammatory signaling pathway complex
- phosphorylation of the MAPK signaling pathway proteins (ERK1/2, JNK, p38) [2]: did not inhibit phosphorylation

Compound: O=C(Nc1nc2ccccc2n1CCN1CCOCC1)c1cccc([N+](=O)[O-])c1 [IRAK1/4 inhibitor, reference compound]
- NF-κB activation (luciferase activity) (NF-κB; 25 μM for 30 minutes, LPS 100 ng/ml 2 hours): inhibited
- AP-1-Luc luciferase activity (MAPK signaling pathway) (AP-1): inhibited MAPK signaling pathway
- MAPK signaling pathway / phosphorylation of ERK, JNK, p38 ([2]; 25 μM for 30 minutes, LPS 100 ng/ml two hours): suppressed at least one or more of MAPK signaling pathways

Compound: CCCCCCCCCCCCCCCC(=O)N1CCC[C@H]1C(=O)NCC(=O)N[C@@H](Cc1ccc(O)cc1)C(=O)O [compound 1.2, (S)-3-(4-hydroxyphenyl)-2-(2-((S)-1-palmitoylpyrrolidine-2-carboxamido)acetamido)propanoic acid] (HELM PEPTIDE1{[CCCCCCCCCCCCCCCC(=O)[*:2]].P.G.Y}$$$$V2.0)
- activation of NF-κB induced by LPS (luciferase activity) (NF-κB; 100 nM for 30 minutes, LPS 100 ng/ml two hours): inhibited
- formation of inflammatory signaling pathway protein complex mediated by MyD88 or RIP1 [3]: disrupted
- expression of interleukin-6 induced by LPS treatment (interleukin-6): suppressed
- phosphorylation of the MAPK signaling pathway proteins (ERK1/2, JNK, p38) [2]: did not inhibit phosphorylation
